Columns and labels:
[1] = system: IL-23-stimulated STAT-dependent luciferase reporter in Kit225 T cells; experiment: Kit225 T cell assay, IL-23 stimulated STAT-dependent luciferase reporter; assay type: cell-based, human; conditions: Kit225 T cells, 20 ng/mL human recombinant IL-23, 5-6 hours, luciferase; read-out: IL23 (Kit225 T Cell Inhibition Data)
Protocol: (§1) Kit225 T cells with a stably-integrated STAT-dependent luciferase reporter were plated in RPMI (Gibco) containing 10% heat-inactivated FBS (Gibco) and 100 U/mL PenStrep (Gibco). The cells were then stimulated with either 20 ng/mL human recombinant IL-23 or 200 U/mL human recombinant IFNα (PBL InterferonSource) for 5-6 hours. Luciferase expression was measured using the STEADY-GLO® Luciferase Assay System (Promega) according to the manufacturer's instructions.

[2] = system: IFNα-stimulated STAT-dependent luciferase reporter in Kit225 T cells; experiment: Kit225 T cell assay, IFNα stimulated STAT-dependent luciferase reporter; assay type: cell-based, human; conditions: Kit225 T cells, 200 U/mL human recombinant IFNα, 5-6 hours, luciferase; read-out: IFNα (Kit225 T Cell Inhibition Data)
Protocol: as §1

| SMILES | IC50 [1] [nM] | IC50 [2] [nM] |
| --- | --- | --- |
| CNC(=O)c1cnc(Nc2cccc(C)n2)cc1Nc1ccccc1C(N)=O [Example 67] | 263 | 140 |
| CNC(=O)c1cnc(Nc2ccccn2)cc1Nc1ccccc1C(N)=O [Example 68] | 502 | 240 |
| CNC(=O)c1cnc(Nc2ncccc2F)cc1Nc1ccccc1C(N)=O [Example 69] | 1470 | 1310 |
| CNC(=O)c1cnc(Nc2ccc(OC)cn2)cc1Nc1ccccc1C(N)=O [Example 70] | 820 | 730 |
| CNC(=O)c1cnc(Nc2cc(F)ccn2)cc1Nc1ccccc1C(N)=O [Example 71] | 574 | 760 |
| CNC(=O)c1cnc(Nc2ccc(C)cn2)cc1Nc1ccccc1C(N)=O [Example 72] | 578 | 380 |
| CNC(=O)c1cnc(Nc2cccc(F)n2)cc1Nc1ccccc1C(N)=O [Example 74] | 236 | 260 |
| CNC(=O)c1cnc(Nc2cc(-c3ccccc3)ccn2)cc1Nc1ccccc1C(N)=O [Example 75] | 2030 | 1730 |
| CNC(=O)c1cnc(Nc2ccc(-c3ccccc3)cn2)cc1Nc1ccccc1C(N)=O [Example 76] | 854 | 740 |
| CNC(=O)c1cnc(Nc2cccc(-c3ccccc3)n2)cc1Nc1ccccc1C(N)=O [Example 77] | 538 | 350 |
| CNC(=O)c1cnc(Nc2cc(C)ccn2)cc1Nc1ccccc1C(N)=O [Example 78] | 388 | 120 |
| CNC(=O)c1cnc(Nc2ccc(C(F)(F)F)cn2)cc1Nc1ccccc1C(N)=O [Example 82] | 1230 | 780 |
| CNC(=O)c1cnc(Nc2ncccc2C)cc1Nc1ccccc1C(N)=O [Example 83] | 5720 | 6940 |
| CNC(=O)c1cnc(Nc2cc(C#N)ccn2)cc1Nc1ccccc1C(N)=O [Example 84] | 369 | 350 |
| CNC(=O)c1cnc(Nc2ccc(N3CCOCC3)cn2)cc1Nc1ccccc1C(N)=O [Example 85] | 1040 | 630 |
| CNC(=O)c1cnc(Nc2ccc(C#N)c(C)n2)cc1Nc1ccccc1C(N)=O [Example 86] | 1820 | 430 |
| CNC(=O)c1cnc(Nc2ccc(S(=O)(=O)N(C)C)cn2)cc1Nc1ccccc1C(N)=O [Example 88] | 2860 | 890 |
| CNC(=O)c1cnc(Nc2cc3ccccc3cn2)cc1Nc1ccccc1C(N)=O [Example 89] | 343 | 370 |
| CNC(=O)c1cnc(Nc2ncccc2Cl)cc1Nc1ccccc1C(N)=O [Example 90] | 7200 | 8260 |
| CNC(=O)c1cnc(Nc2cc(C(F)(F)F)ccn2)cc1Nc1ccccc1C(N)=O [Example 91] | 567 | 420 |
| CNC(=O)c1cnc(Nc2ccc(C#N)cn2)cc1Nc1ccccc1C(N)=O [Example 92] | 3930 | 1540 |
| CNC(=O)c1cnc(Nc2cccc(C(F)(F)F)n2)cc1Nc1ccccc1C(N)=O [Example 95] | 960 | 680 |
| CNC(=O)c1cnc(Nc2ccc(F)cn2)cc1Nc1ccc(F)c(F)c1OC [Example 96] | 257 | 210 |

| SMILES | IC50 [1] [nM] | IC50 [2] [nM] |
| --- | --- | --- |
| CNC(=O)c1cnc(Nc2cc(C(N)=O)ccn2)cc1Nc1ccc(Cl)cc1OC [Example 97] | 3910 | 3250 |
| CNC(=O)c1cnc(Nc2ccc(-n3ccccc3=O)cn2)cc1Nc1ccc(Cl)cc1OC [Example 98] | 480 | 280 |
| CNC(=O)c1cnc(Nc2ccc(F)cn2)cc1Nc1ccc(Cl)cc1OC [Example 99] | 479 | 310 |
| CNC(=O)c1cnc(Nc2cc(C)ccn2)cc1Nc1ccc(F)c(F)c1OC [Example 100] | 158 | 120 |
| CNC(=O)c1cnc(Nc2ccc(N3CCOCC3)cn2)cc1Nc1ccc(F)c(F)c1OC [Example 101] | 200 | 80 |
| CNC(=O)c1cnc(Nc2ccc(N3C(=O)COCC3C)cn2)cc1Nc1ccc(Cl)cc1OC (centres unmarked) [Example 102] | 368 | 150 |
| CNC(=O)c1cnc(Nc2ccc(N3CCCCC3=O)cn2)cc1Nc1ccc(Cl)cc1OC [Example 103] | 398 | 330 |
| CNC(=O)c1cnc(Nc2ccc(N3CCOC3=O)cn2)cc1Nc1ccc(Cl)cc1OC [Example 105] | 386 | 190 |
| CNC(=O)c1cnc(Nc2ccc(-n3cc(F)ccc3=O)cn2)cc1Nc1ccc(Cl)cc1OC [Example 106] | 439 | 180 |
| CNC(=O)c1cnc(Nc2cccc(OC)n2)cc1Nc1ccc(Cl)cc1OC [Example 108] | 369 | 230 |
| CNC(=O)c1cnc(Nc2cccc(C)n2)cc1Nc1ccc(Cl)cc1OC [Example 109] | 948 | 210 |
| CNC(=O)c1cnc(Nc2ccccn2)cc1Nc1ccc(Cl)cc1OC [Example 110] | 998 | 420 |
| CNC(=O)c1cnc(Nc2ccc(C)cn2)cc1Nc1ccc(Cl)cc1OC [Example 111] | 1300 | 990 |
| CNC(=O)c1cnc(Nc2ccc(OC)cn2)cc1Nc1ccc(Cl)cc1OC [Example 112] | 717 | 400 |
| CNC(=O)c1cnc(Nc2cc(C)ccn2)cc1Nc1ccc(Cl)cc1OC [Example 113] | 876 | 200 |
| CNC(=O)c1cnc(Nc2ccc3[nH]ccc3n2)cc1Nc1ccc(Cl)cc1OC [Example 114] | 4550 | 1540 |
| CNC(=O)c1cnc(Nc2cc(F)ccn2)cc1Nc1ccc(Cl)cc1OC [Example 115] | 632 | 440 |
| CNC(=O)c1cnc(Nc2cccc(-c3ccccc3)n2)cc1Nc1ccc(Cl)cc1OC [Example 116] | 2190 | 750 |
| CNC(=O)c1cnc(Nc2cccc(C(F)(F)F)n2)cc1Nc1ccc(Cl)cc1OC [Example 117] | 1980 | 480 |
| CNC(=O)c1cnc(Nc2ccc(C#N)c(C)n2)cc1Nc1ccc(Cl)cc1OC [Example 118] | 1160 | 570 |
| CNC(=O)c1cnc(Nc2ccc(F)cn2)cc1Nc1ccc(F)cc1OC [Example 119] | 2200 | 860 |
| CNC(=O)c1cnc(Nc2ccc(C(F)(F)F)cn2)cc1Nc1ccc(Cl)cc1OC [Example 120] | 4510 | 1880 |
| CNC(=O)c1cnc(Nc2cc(C#N)ccn2)cc1Nc1ccc(Cl)cc1OC [Example 121] | 244 | 150 |

| SMILES | IC50 [1] [nM] | IC50 [2] [nM] |
| --- | --- | --- |
| CNC(=O)c1cnc(Nc2ccc(F)cn2)cc1Nc1ccccc1OC(F)F [Example 122] | 535 | 250 |
| CNC(=O)c1cnc(Nc2ccc(F)cn2)cc1Nc1cccc2c1OC(F)(F)O2 [Example 123] | 8790 | 11100 |
| CNC(=O)c1cnc(Nc2ccc(C#N)cn2)cc1Nc1ccc(F)cc1OC [Example 124] | 462 | 640 |
| CNC(=O)c1cnc(Nc2ccc(-n3cc(F)ccc3=O)cn2)cc1Nc1ccc(F)cc1OC [Example 126] | 830 | 700 |
| CNC(=O)c1cnc(Nc2ccc(N3CCCC3=O)cn2)cc1Nc1ccc(F)cc1OC [Example 127] | 852 | 470 |
| CNC(=O)c1cnc(Nc2cc(C)ccn2)cc1Nc1cc(F)cc(F)c1OC [Example 129] | 86.6 | 80 |
| CNC(=O)c1cnc(Nc2cccc(OC)n2)cc1Nc1cc(F)cc(F)c1OC [Example 130] | 119 | 50 |
| CNC(=O)c1cnc(Nc2ccccn2)cc1Nc1cc(F)cc(F)c1OC [Example 131] | 183 | 60 |
| CNC(=O)c1cnc(Nc2cccc(C)n2)cc1Nc1cc(F)cc(F)c1OC [Example 132] | 187 | 120 |
| CNC(=O)c1cnc(Nc2ccc(OC)cn2)cc1Nc1cc(F)cc(F)c1OC [Example 133] | 179 | 70 |
| CNC(=O)c1cnc(Nc2ccc(C(F)(F)F)cn2)cc1Nc1cc(F)cc(F)c1OC [Example 135] | 3420 | 1530 |
| CNC(=O)c1cnc(Nc2cc3ccccc3cn2)cc1Nc1cc(F)cc(F)c1OC [Example 136] | 747 | 390 |
| CNC(=O)c1cnc(Nc2cc(F)ccn2)cc1Nc1cc(F)cc(F)c1OC [Example 137] | 188 | 210 |
| CNC(=O)c1cnc(Nc2cccc(C(F)(F)F)n2)cc1Nc1cc(F)cc(F)c1OC [Example 138] | 354 | 220 |
| CNC(=O)c1cnc(Nc2ccc(C#N)c(C)n2)cc1Nc1cc(F)cc(F)c1OC [Example 139] | 367 | 180 |
| CNC(=O)c1cnc(Nc2cc(C)c(C#N)c(C)n2)cc1Nc1cc(F)cc(F)c1OC [Example 140] | 281 | 120 |
| CCc1cccc(Nc2cc(Nc3cc(F)cc(F)c3OC)c(C(=O)NC)cn2)n1 [Example 141] | 401 | 350 |
| CNC(=O)c1cnc(Nc2ccc(N3CCCC3=O)cn2)cc1Nc1ccc(F)cc1OCF [Example 142] | 742 | 410 |
| CNC(=O)c1cnc(Nc2cccc(-c3ccccc3)n2)cc1Nc1cc(F)cc(F)c1OC [Example 143] | 783 | 560 |
| CNC(=O)c1cnc(Nc2ccc(C#N)cn2)cc1Nc1cc(F)cc(F)c1OC [Example 145] | 794 | 420 |
| CNC(=O)c1cnc(Nc2cc3ccccc3cn2)cc1Nc1ccc(F)cc1OC [Example 146] | 2160 | 1450 |

Reference: patent US9315494B2, “Alkyl-amide-substituted pyridyl compounds useful as modulators of IL-12, IL-23 and/or IFNα responses” (Bristol-Myers Squibb Company, priority 2012, dated 2016)
